Experiment [1] addresses T1, cloned human 5-HT7 receptor (Homo sapiens, UniProt P34969).
T1 construct: expressed in transfected cells
In words: 5-HT7 receptor-binding assay ([3H]-5CT). Conditions: for Selectivity (ratio of Ki (5-HT2) with Ki (5-HT7)): Ki (5-HT2, rat cortex) / Ki (5-HT7, cloned human). Here is the method: 5-HT7 Receptor-binding Assay
Membranes from culture cells expressing cloned human 5-HT7 receptor were harvested and homogenized in 50 mM Tris-HCl assay buffer (pH 7.4) containing 10 mM MgCl2 and 0.5 mM EDTA with a potter-type homogenizer, and the suspension was centrifuged at 4° C., 39,000×g for 20 minutes. The resulting pellet was resuspended in the assay buffer at a proportion of 1 ml per an amount of a piece of culture petri dish having a diameter of 10 cm, and homogenized again.
The incubation was terminated by rapid filtration through GB/B filter, washed with 6 ml of ice-cold 50 mM Tris-HCl buffer (pH 7.4). The bound radioactivity was determined by liquid scintillation counter. While, non-specific binding was determined in the presence of 10 μM metergoline. The specific binding was calculated from the bound radioactivity after subtraction of non-specific binding.

The target of experiment [2] is T2, 5-HT2 receptor (rat cerebral cortex P2 fraction) (Rattus norvegicus, UniProt P14842).
T2 construct: Rat cerebral cortex was homogenized in 10 volumes of 0.32 M sucrose solution; from tissue; host or cells: rat cerebral cortex, P2 membrane fraction
In words: 5-HT2 receptor-binding assay ([3H]ketanserin). Here is the method: 5-HT2 Receptor-binding Assay
Rat cerebral cortex was homogenized in 10 volumes of 0.32 M sucrose solution. The supernatant obtained by centrifuging at 900×g for 10 minutes was further centrifuged at 11,500×g for 20 minutes. The pellet was resuspended in 50 mM Tris-HCl buffer (pH 7.4) and then centrifuged at 39,900×g for 20 minutes. The final pellet was used a P2 fraction.
P2 fraction was incubated in 50 mM tris-HCl buffer (pH 7.4) containing 1 nM [^3H]ketanserin and the compound of the present invention at 37° C. for 15 minutes and terminated by rapid filtration through GF/B filters. The bound radioactivity was determined by liquid scintillation counter. While, non-specific binding was determined in the presence of 10 μM ketanserin. Thus, the specific binding was calculated from the bound radioactivity after the subtraction of non-specific binding.

Setting [3] is: rat cerebral cortex P2 fraction, 1 nM [3H]ketanserin, 37° C., 15 minutes, Ki calculated from IC50, read-out: Receptor Binding Affinity Ki Value (5-HT2).
The mark [4] stands for this setting: membranes of cultured cells expressing cloned human 5-HT7 receptor, 1 nM [3H]-5CT, 37° C., 30 minutes, Ki calculated from IC50, read-out: Receptor Binding Affinity Ki Value (5-HT7).

Like-named read-outs stand apart in the source and are kept apart here.

T1 sequence (P34969 whole entry): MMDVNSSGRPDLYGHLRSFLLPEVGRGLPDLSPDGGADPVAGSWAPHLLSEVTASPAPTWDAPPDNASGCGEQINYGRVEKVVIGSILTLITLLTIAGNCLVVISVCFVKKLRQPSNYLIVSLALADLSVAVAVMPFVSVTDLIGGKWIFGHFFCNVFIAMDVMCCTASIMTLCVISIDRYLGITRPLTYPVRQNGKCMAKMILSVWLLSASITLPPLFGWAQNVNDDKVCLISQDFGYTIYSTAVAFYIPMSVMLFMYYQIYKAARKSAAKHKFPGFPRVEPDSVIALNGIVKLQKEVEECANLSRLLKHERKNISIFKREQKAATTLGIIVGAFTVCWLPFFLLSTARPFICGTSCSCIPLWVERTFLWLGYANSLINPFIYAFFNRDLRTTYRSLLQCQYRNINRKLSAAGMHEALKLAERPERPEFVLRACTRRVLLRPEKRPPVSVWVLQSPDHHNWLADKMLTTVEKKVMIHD
T2 sequence (P14842 whole entry): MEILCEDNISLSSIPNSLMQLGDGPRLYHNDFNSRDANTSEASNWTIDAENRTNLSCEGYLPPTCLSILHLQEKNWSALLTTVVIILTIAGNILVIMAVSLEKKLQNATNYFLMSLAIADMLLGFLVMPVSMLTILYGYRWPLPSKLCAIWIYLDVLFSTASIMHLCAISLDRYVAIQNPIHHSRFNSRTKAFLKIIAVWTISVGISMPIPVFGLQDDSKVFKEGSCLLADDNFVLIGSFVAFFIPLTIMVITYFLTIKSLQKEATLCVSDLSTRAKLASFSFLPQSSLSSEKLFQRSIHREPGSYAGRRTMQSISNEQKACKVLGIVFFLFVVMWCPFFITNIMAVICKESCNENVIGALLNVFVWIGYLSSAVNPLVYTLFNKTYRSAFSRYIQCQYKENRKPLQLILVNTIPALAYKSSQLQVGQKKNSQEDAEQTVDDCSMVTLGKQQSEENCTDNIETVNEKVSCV

What is called Ki is a measure of affinity in units of concentration, obtained from inhibition or displacement. `COc1ccccc1N1CCN(CCCCC23CCCc4cccc(c42)NC3=O)CC1` (racemic) [Racemic Mixture of Synthesis Example 14, reference compound]: the “Selectivity (ratio of Ki (5-HT2) with Ki (5-HT7))” value in experiment [1] is on record as 7. In experiment [2] (setting [3]), the Ki was 60 nM.
Consider `O=C1Nc2cccc3c2C1(CCCCN1CC=C(c2ccccc2)CC1)CCC3` (racemic) [Racemic Mixture of Synthesis Example 15, reference compound], for which, in experiment [1], the Ki was 9 nM and the “Selectivity (ratio of Ki (5-HT2) with Ki (5-HT7))” value turned out to be 10. For the same compound, the affinity in experiment [2] corresponds to a Ki of 92 nM.
With `CN(C)C(=O)n1c2c(c3ccccc31)CCN(CCCCC13CCCc4cccc(c41)NC3=O)C2` (racemic) [Racemic Mixture of Synthesis Example 17, reference compound], in experiment [1], the “Selectivity (ratio of Ki (5-HT2) with Ki (5-HT7))” value was 121. In addition, the Ki in experiment [1] (setting [4]) is 8 nM; in experiment [2] (setting [3]) it was 970 nM.
In the case of `O=C1Nc2cccc3c2C1(CCCCN1CCc2ccccc2C1)CCC3` (racemic) [Racemic Mixture of Synthesis Example 18, reference compound], in experiment [1], the “Selectivity (ratio of Ki (5-HT2) with Ki (5-HT7))” value is recorded as 79. Also, the Ki in experiment [1] (setting [4]) is 8 nM; in experiment [2] (setting [3]) it was 628 nM.
On to `CNC(=O)Cn1c2c(c3ccccc31)CCN(CCCCC13CCCc4cccc(c41)NC3=O)C2` (racemic) [Racemic Mixture of Synthesis Example 22, reference compound], for which the “Selectivity (ratio of Ki (5-HT2) with Ki (5-HT7))” value in experiment [1] is on record as more than 278. Moreover, the Ki in experiment [1] (setting [4]) was 3.6 nM; in experiment [2] (setting [3]), more than 1000 nM.
For `COc1ccccc1N1CCN(CCCC[C@@]23CCCc4cccc(c42)NC3=O)CC1` [Synthesis Example 14, (S)-2a-(4-(4-(2-methoxyphenyl)piperazinyl)butyl)-2a,3,4,5-tetrahydro-1H-benz[cd]indol-2-one], the “Selectivity (ratio of Ki (5-HT2) with Ki (5-HT7))” value in experiment [1] amounted to 49. For the same compound, the Ki in experiment [1] (setting [4]) is 1.7 nM; in experiment [2] (setting [3]) it was 84 nM.
On to `O=C1Nc2cccc3c2[C@@]1(CCCCN1CC=C(c2ccccc2)CC1)CCC3` [Synthesis Example 15, (S)-2a-(4-(4-phenyl-1,2,3,6-tetrahydropyridin)-1-ylbutyl)-2a,3,4,5-tetrahydro-1H-benz[cd]indol-2-one], for which the Ki in experiment [1] came out at 1.3 nM; in experiment [2], 42 nM. The “Selectivity (ratio of Ki (5-HT2) with Ki (5-HT7))” value in experiment [1] was 32.
For `CN(C)C(=O)n1c2c(c3ccccc31)CCN(CCCC[C@@]13CCCc4cccc(c41)NC3=O)C2` [Synthesis Example 17, (S)-2a-[4-(9-dimethylcarbamoyl-2,3,4,9-tetrahydro-1H-pyrido[3,4-b]indol-2-yl)-butyl]-2a,3,4,5-tetrahydro-1H-benz[cd]indol-2-one], the “Selectivity (ratio of Ki (5-HT2) with Ki (5-HT7))” value in experiment [1] is reported as more than 250. Besides, the inhibition constant Ki was 4 nM in experiment [1] (setting [4]) and more than 1000 nM in experiment [2] (setting [3]).
Turning to `O=C1Nc2cccc3c2[C@@]1(CCCCN1CCc2ccccc2C1)CCC3` [Synthesis Example 18, (S)-2a-(4-(1,2,3,4-tetrahydroisoquinolin-2-yl)-butyl)-2a,3,4,5-tetrahydro-1H-benz[cd]indol-2-one], the “Selectivity (ratio of Ki (5-HT2) with Ki (5-HT7))” value in experiment [1] is more than 125. Besides, the Ki is 7.7 nM in experiment [1] (setting [4]) and more than 1000 nM in experiment [2] (setting [3]).
For `CNC(=O)Cn1c2c(c3ccccc31)CCN(CCCC[C@@]13CCCc4cccc(c41)NC3=O)C2` [Synthesis Example 22, (S)-2a-(4-(9-methylcarbamoylmethyl-2,3,4,9-tetrahydro-1H-pyrido[3,4-b]indol-2-yl)butyl)-2a,3,4,5-tetrahydro-1H-benz[cd]indol-2-one], in that order: more than 667, 1.5 nM and more than 1000 nM.

The record behind these values is patent US6407112B1, “Optically active tetrahydrobenzindole derivative” (Meiji Seika Kaisha, Ltd., priority 1998, dated 2002).
